Assay results published in PMC11435135, “Diagnosis of Prostate Cancer with a Neurotensin–Bombesin Radioligand Combination—First Preclinical Results” (Pharmaceutics, 2024).

Experiments:
PC-3 xenografts = system: PC-3 xenografts; design: species or system mice; conditions: mouse, in vivo
Experimental: The biodistribution of [^99mTc]Tc-DT11 was studied in male severe combined immunodeficiency (SCID) mice (11 mice 6-weeks of age on arrival date, 18 ± 4 g, NCSR “Demokritos” Animal House, Athens, Greece) bearing PC-3 xenografts in their flanks. Tumor induction was achieved by subcutaneous injection of a PC-3 cell suspension (12 × 10^6 cells in 150 µL PBS) in their flanks. The animals were kept under aseptic conditions and, 3 weeks later, developed palpable masses at the inoculation sites (150 ± 50 mg); biodistribution was then conducted. On the day of the experiment, animals were divided into three groups: controls (n = 4), Entresto® (n = 4) and block (n = 3). All mice were injected in the tail vein with a bolus of [^99mTc]Tc-DT11 (100 µL, 185 kBq, 5 pmol total peptide in vehicle). […] Blood was collected from the heart, and tumors, organs and tissue samples of interest were excised and weighted, and their radioactivity content was measured together with the proper standards of the injected activity in the gamma counter. The percent of injected activity per gram (%IA/g) was calculated, and the results were provided as mean %IA/g values ± sd for each group. […]

NTS1R = conditions: cited from earlier work
Source text: (§1) We decided to investigate the potential advantages–shortcomings of the “radioligand cocktail” approach in human prostate cancer, prompted by the reported co-expression of NTS1R and GRPR in this frequently occurring cancer type. For such a purpose, we opted for the PC-3 cell line to conduct our cell uptake studies as well as to induce subcutaneous xenografts in mice, as it co-expresses the two targets of interest. Based on our previous work on NTS1R- and GRPR-directed radioligands, we selected a cocktail consisting of [^99mTc]Tc-DT11 (NTS1R-specific) [[47] ...

PC-3 cells = assay: Uptake/internalization of [99mTc]Tc-DT11 in PC-3 cells; type: cell-based, human; conditions: radioligand alone, 1 h at 37 °C
Experimental: The day preceding the experiment, PC-3 cells were transferred in 6-well plates (1 × 10^6 cells in 3 mL culture medium per well), and the plates were positioned in the incubator. On the day of the experiment, the plates were placed on ice and the supernatant was aspirated and discarded. The cells were rinsed with 2 × 2 mL ice-cold internalization medium (IM, RPMI-1640 with 1% FBS) and the plates were placed on the bench. Warm IM (1.2 mL at 37 °C) was added to the wells, followed by either warm IM (150 µL—3 upper wells, total series) or excess NT in IM (150 µL to a final concentration of 1 µM—3 lower wells, non-specific series). In a last step, [^99mTc]Tc-DT11 in phosphate-buffered saline with 0.5% bovine serum albumin (PBS-BSA) was added to all plates (250 fmol peptide, ≈100,000 cpm). Cells were incubated for 1 h at 37 °C in an Incubator-Orbital Shaker unit (MPM Instr. SrI, Bernareggio, Milan, Italy). Incubation was interrupted by placing the plates on ice and collecting the supernatants in separate plastic tubes. The cells were rinsed with ice-cold PBS-BSA (1 mL) and the liquid was collected and combined with the respective supernatant tubes. The plates were placed on the bench and incubated 2 × 5 min with acid buffer (2 × 600 µL, 50 mM Gly in 0.1 M NaCl, pH 2.8). Supernatants were again collected and combined in individual tubes (membrane-bound fractions). Cells were rinsed with ice-cold PBS-BSA (1 mL), which was aspirated and discarded. Finally, the cells were treated with 2 × 600 µL 1 M NaOH, detached, collected and combined in separate tubes (internalized fractions). The radioactivity of all tubes was measured in the gamma counter. The percentage of specific membrane-bound and internalized fractions (their sum corresponding to specific cell-uptake) vs. total radioactivity added per well were calculated by subtracting non-specific values from totals. Results were expressed as average values ± standard deviation (sd) from 3 independent experiments performed in triplicate.

GRPR = conditions: cited from earlier work
Source text: as §1

[1] = NTS1R-specific, % of added activity, mean ± sd, 3 experiments in triplicate

Row | Substance | tumor-to-kidney ratio (PC-3 xenografts) | affinity to the respective receptor (NTS1R) | internalized fraction as share of cell-associated activity (PC-3 cells) | membrane-bound fraction as share of cell-associated activity (PC-3 cells) | internalized fraction (PC-3 cells; [1]) [%] | membrane-bound fraction (PC-3 cells; [1]) [%] | affinity to the respective receptor (GRPR)
1 | N4-Lys(MPBA-PEG4)-Arg-Arg-Pro-Tyr-Ile-Leu-OH [[^99mTc]Tc-DT11, Tc-99m labeled DT11, NTS1R-specific neurotensin-based radioligand] | ≈ 1.5 | sub-nanomolar | ≈ 87% | ≈ 13% | 1.22 ± 0.26 | 0.18 ± 0.12 | –
2 | N4-PEG2-DPhe-Gln-Trp-Ala-Val-Gly-His-Leu-NHEt [[^99mTc]Tc-DB7, Tc-99m labeled DB7, GRPR-specific bombesin-based radioligand (GRPR antagonist)] | – | – | – | – | – | – | sub-nanomolar
